According to ChEMBL document CHEMBL5726799, “IRAK4 inhibiting agents” (2019):

Molecular target: T1, Interleukin-1 receptor-associated kinase 4 (Homo sapiens, UniProt Q9NWZ3)
T1 sequence (Q9NWZ3 whole entry): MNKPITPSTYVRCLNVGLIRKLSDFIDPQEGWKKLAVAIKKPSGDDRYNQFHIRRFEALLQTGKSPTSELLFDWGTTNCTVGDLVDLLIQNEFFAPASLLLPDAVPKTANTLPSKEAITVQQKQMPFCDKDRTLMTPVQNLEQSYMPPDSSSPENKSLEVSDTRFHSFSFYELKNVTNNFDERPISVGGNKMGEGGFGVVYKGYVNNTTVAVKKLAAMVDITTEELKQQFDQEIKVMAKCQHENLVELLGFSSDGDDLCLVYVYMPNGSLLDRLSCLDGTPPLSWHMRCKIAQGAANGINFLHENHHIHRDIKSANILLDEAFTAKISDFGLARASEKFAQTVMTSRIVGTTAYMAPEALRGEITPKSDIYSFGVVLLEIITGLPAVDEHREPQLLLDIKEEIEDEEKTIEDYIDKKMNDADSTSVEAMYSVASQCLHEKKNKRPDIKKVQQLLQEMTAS
Assay: Biochemical Assay: The biochemical assay is in a AlphaScreen format. The kinase reaction is based on the IRAK-4 phosphorylation of a biotin labeled peptide. The phosphopeptide is incubated with anti-phosphothreonine antibody as well as streptavidin- and protein A-coated beads. Binding of the protein-A coated beads to the antibody and the streptavidin beads to the peptide, leads to an energy transfer from one bead to the other, ultimately producing a luminescent/fluorescent signal.Generally, the kinase reaction is carried out at 1 nM IRAK4, 1.6 μM peptide, 1 mM ATP in reaction buffer 50 mM Hepes, 60 mM NaCl, 5 mM MgCl2, 0.25 mM MnCl2, 2 mM DTT, 0.01% BSA, 0.01% Tween-20) for 3.5 h at RT.

Row | Structure (SMILES) | IC50 [nM]
1 | N#CCNC(=O)c1cc(N)cc(-c2ccc3cnn(-c4cccc(C(F)(F)F)n4)c3c2)c1 | < 100
2 | CCC[C@H](N)c1cccc(-c2cc(N3CCC3)c3cnn(-c4cccc(CO)n4)c3c2)n1 | < 100
3 | CCc1cccc(-c2cc(-c3nnc(C)o3)c3cnn(-c4cccc(CO)n4)c3c2)n1 | < 100
4 | CCC[C@H](N)c1cccc(-c2cc(N3CCOCC3)c3cnn(-c4cccc(CO)n4)c3c2)n1 | < 100
